Values of other authors in US20160324796A1, “COMPOSITIONS AND THEIR USE TO TREAT COMPLICATIONS OF ANEURYSMAL SUBARACHNOID HEMMORRHAGE” (Edge Therapeutics, Inc., priority 2007, published 2016).
Read-outs that look alike come from different tables or passages of the source. Ends that are not written are not given here.

Tests used:
patients with SAH [1] = conditions: cited from earlier work
patients with SAH [2] = conditions: cited from earlier work; for patients with primary end point: placebo 27%; for patients with poor outcome (extended Glasgow Outcome Scale score </=4): placebo 24%
[3] = test system: K+ and Na+ currents, and L, P/Q and T-type calcium currents; conditions: cited from earlier work
N-type calcium current = N-type calcium current (Homo sapiens, UniProt Q00975); conditions: at 300 nM to 500 nM; cited from earlier work
R-type calcium current = conditions: cited from earlier work

Sequence of N-type calcium current (Q00975 whole entry): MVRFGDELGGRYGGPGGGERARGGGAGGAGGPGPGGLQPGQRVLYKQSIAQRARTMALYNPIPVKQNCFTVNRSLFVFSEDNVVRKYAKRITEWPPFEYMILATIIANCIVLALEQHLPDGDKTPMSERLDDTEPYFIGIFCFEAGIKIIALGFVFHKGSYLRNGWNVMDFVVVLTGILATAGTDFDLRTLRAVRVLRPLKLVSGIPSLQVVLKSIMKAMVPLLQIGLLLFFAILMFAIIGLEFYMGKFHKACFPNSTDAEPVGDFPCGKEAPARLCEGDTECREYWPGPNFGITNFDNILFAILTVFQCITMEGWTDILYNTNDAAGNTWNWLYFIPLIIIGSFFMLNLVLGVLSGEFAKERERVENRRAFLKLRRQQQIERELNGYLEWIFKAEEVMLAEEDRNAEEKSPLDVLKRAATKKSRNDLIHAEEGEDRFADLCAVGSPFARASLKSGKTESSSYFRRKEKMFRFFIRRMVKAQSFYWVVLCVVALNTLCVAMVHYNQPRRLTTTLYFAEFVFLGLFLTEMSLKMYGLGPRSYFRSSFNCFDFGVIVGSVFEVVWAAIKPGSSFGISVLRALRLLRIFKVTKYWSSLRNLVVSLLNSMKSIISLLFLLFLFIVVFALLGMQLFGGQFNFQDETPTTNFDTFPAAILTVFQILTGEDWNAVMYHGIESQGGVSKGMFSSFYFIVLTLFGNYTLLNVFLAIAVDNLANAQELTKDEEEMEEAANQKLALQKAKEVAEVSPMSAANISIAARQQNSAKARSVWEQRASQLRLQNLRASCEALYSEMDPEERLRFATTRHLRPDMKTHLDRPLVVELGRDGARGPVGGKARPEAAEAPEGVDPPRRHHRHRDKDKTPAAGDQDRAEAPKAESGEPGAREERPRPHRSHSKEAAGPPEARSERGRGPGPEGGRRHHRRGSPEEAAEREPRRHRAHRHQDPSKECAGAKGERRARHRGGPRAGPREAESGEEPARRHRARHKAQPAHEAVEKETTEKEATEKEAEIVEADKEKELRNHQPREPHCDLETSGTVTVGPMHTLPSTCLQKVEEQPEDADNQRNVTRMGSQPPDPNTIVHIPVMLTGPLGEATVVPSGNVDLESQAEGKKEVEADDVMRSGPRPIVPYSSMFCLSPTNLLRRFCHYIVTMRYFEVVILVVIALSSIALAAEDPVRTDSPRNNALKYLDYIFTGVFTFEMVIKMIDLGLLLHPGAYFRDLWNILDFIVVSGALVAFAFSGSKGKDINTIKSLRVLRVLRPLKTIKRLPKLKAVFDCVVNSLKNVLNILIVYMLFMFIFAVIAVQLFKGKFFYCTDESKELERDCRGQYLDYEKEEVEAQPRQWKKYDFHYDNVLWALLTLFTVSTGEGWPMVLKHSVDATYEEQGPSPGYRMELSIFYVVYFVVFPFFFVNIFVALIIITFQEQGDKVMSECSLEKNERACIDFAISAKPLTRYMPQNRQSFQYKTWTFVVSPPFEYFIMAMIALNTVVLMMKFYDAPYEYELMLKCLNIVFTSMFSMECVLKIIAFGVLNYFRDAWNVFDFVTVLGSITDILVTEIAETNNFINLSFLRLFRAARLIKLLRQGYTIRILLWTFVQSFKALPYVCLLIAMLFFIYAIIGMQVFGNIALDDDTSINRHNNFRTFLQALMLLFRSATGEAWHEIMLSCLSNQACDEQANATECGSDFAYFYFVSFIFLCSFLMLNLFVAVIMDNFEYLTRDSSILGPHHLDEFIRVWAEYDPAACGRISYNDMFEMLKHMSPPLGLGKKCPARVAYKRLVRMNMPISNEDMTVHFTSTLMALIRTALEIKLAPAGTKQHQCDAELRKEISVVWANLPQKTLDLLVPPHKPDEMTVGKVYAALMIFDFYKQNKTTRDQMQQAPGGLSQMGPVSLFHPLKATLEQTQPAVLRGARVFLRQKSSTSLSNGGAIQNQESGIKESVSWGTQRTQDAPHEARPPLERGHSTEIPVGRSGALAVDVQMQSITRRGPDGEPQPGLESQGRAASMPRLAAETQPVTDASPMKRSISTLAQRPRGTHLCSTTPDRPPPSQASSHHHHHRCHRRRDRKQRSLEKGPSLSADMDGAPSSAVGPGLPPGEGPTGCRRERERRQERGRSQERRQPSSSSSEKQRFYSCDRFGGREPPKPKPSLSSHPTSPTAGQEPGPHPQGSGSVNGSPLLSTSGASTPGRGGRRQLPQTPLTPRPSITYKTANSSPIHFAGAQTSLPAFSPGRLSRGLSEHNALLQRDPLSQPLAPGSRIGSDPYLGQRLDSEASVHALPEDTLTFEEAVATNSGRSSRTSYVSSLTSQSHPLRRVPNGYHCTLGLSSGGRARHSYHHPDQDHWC

Compound | patients meeting primary composite endpoint (week 6) (patients with SAH [1]; 5 mg/h up to 14 days, 161 of 764 patients, placebo 25%) [%] | relative risk reduction, primary composite endpoint (patients with SAH [1]; 5 mg/h versus placebo, 95% CI -4 to 33, p=0.10) [%] | relative risk reduction, poor functional outcome (patients with SAH [1]; 5 mg/h versus placebo, −45 to 4, p=0.10) [%] | patients with poor functional outcome (GOSE score </=4) (patients with SAH [1]; 5 mg/h, placebo 25%) [%] | Mortality (week 12) (patients with SAH [1]; 5 mg/h, same in placebo) [%] | odds ratio, primary end point (patients with SAH [2]; 5 mg/h versus placebo, 95% CI 0.479-1.289, P=0.340) | odds ratio, poor outcome (patients with SAH [2]; 5 mg/h versus placebo, 95% CI 0.546-1.544, P=0.748) | patients with primary end point (patients with SAH [2]; 5 mg/h, 47/194) [%] | patients with poor outcome (extended Glasgow Outcome Scale score </=4) (patients with SAH [2]; 5 mg/h) [%] | odds ratio, primary end point (patients with SAH [2]; 15 mg/h versus placebo, 95% CI 0.275-0.818, P=0.007) | odds ratio, poor outcome (patients with SAH [2]; 15 mg/h versus placebo, 95% CI 0.802-2.227, P=0.266) | patients with primary end point (patients with SAH [2]; 15 mg/h, 28/188) [%] | patients with poor outcome (extended Glasgow Outcome Scale score </=4) (patients with SAH [2]; 15 mg/h) [%] | effect on K+ and Na+ currents, and L, P/Q and T-type calcium currents [3] | block of N-type calcium current (N-type calcium current) | block of R-type calcium current (R-type calcium current; neurohypophysial nerve endings, 40 nM) | effect on R-type current (R-type calcium current; preparations of the neuronal cell body, retinal ganglion cells and hippocampal pyramidal cells)
COc1ccccc1Oc1c(NS(=O)(=O)c2ccc(C)cn2)nc(-c2ccnc(-c3nnn[nH]3)c2)nc1OCCO [clazosentan] | 21 | 17 | −18 | 29 | 6 | 0.786 | 0.918 | 24 | 25 | 0.474 | 1.337 | 15 | 28 | – | – | – | –
SNX-482: toxin from the tarantula Hysterocrates gigas, a 41 amino acid residue peptide with 3 disulfide linkages; putative R-type selective blocker (GVDKAGCRYMFGGCSVNDDCCPRLGCHSLFSYCAWDLTFSD; disulfide (positions not given here); UniProt P56854 1-41, looked up) | – | – | – | – | – | – | – | – | – | – | – | – | – | no effect | 30-50% | blocks | no significant effect
